Data: patent US20030105010A1, “Crystals and structures of ArnB aminotransferases” (priority 2001, published 2003)

Legend:
[1] = biological target: T1, Salmonella typhimurium ArnB (Salmonella typhimurium, UniProt Q8ZNF3); test: ArnB aminotransfer half-reaction assay (absorbance of PMP/PLP cofactor forms at 340 nm / 430 nm); assay type: biochemical; details: for conversion of ArnB from the E-PLP form back to the E•PMP form by amino donor: excess amino acid, decrease at 430 nm and increase at 340 nm; for observed rate constant of aminotransfer from L-methionine to E-PLP ArnB: enzyme concentration 23 μM, L-methionine concentration 20 mM
T1 construct: made in house; host or cells: E. coli BL21 (DE3), vector pSB3 (modified pET26b)
T1 sequence (Q8ZNF3 whole entry): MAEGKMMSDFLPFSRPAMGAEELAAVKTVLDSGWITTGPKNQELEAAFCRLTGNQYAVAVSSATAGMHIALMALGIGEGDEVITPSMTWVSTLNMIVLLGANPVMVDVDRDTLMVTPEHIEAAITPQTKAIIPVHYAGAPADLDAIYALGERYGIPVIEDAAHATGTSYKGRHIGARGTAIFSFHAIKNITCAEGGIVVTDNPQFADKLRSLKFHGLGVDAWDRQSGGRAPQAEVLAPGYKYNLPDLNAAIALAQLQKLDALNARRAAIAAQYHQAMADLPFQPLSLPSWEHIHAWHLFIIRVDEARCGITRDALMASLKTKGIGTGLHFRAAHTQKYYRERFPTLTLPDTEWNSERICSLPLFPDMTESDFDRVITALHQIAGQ
Method: Aminotransfer half-reactions were measured at an enzyme concentration of 23 μM and substrates were added to a final concentration of 250 μM, unless otherwise indicated. Reaction progress was followed by moniotoring the absorbance maxima of the PMP or PLP cofactor forms at 340 nm or 430 nm, respectively. Resulting time courses were fit to eq. 1, describing a single-exponential decay,
Yobs=((Y0−Y∞)e^−kt)+Y∞ (Eq. 1),
where Yobs=observed signal, Y0=signal at time zero, Y∞=signal at infinite time, k is the apparent first-order rate constant, and t is time. Nonlinear least-squares fits were performed with Kaleidagraph v3.51 (Synergy Software, Reading, Pa.).

ArnB from E. coli K12 = ArnB from E. coli K12 (Escherichia coli, UniProt P77690); details: compared with L-glutamate; cited from earlier work
Chain of ArnB from E. coli K12 (P77690 whole entry): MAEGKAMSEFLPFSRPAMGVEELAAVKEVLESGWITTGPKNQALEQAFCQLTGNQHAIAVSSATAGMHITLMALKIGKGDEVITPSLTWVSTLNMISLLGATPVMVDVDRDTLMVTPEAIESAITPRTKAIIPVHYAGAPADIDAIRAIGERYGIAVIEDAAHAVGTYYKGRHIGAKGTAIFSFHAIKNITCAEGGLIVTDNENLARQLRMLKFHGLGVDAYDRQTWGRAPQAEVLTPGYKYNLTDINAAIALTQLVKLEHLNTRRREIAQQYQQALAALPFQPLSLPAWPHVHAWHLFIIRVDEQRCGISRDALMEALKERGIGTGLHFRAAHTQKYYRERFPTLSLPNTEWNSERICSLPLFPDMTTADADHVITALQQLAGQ

[2] = biological target: T1, Salmonella typhimurium ArnB; test: L-cycloserine inhibition of ArnB followed by cofactor absorbance spectrum; assay type: biochemical

CSCC[C@@H](N)C(=O)O (single isomer, unassigned) [D-isomer of methionine]
conversion of ArnB from the E-PLP form back to the E•PMP form by amino donor [1]: no such effect

N[C@@H](CC(=O)O)C(=O)O (single isomer, unassigned) [L-isomer of aspartic acid]
conversion of ArnB from the E-PLP form back to the E•PMP form by amino donor [1]: slower rate than L-methionine

O=C(O)CCCC(=O)C(=O)O [α-Ketoadipate]
reduction in aminotransfer rate from that of α-ketoglutarate ([1]; E•PMP to E-PLP conversion, absorbance increase at 430 nm, α-ketoacid as amino acceptor substrate): 3 fold

N[C@@H](CCC(=O)O)C(=O)O [L-glutamate]
conversion of ArnB from the E-PLP form back to the E•PMP form by amino donor [1]: fastest L-amino acid tested

CSCC[C@H](N)C(=O)O [L-methionine]
conversion of ArnB from the E-PLP form back to the E•PMP form by amino donor [1]: readily converted
observed rate constant of aminotransfer from L-methionine to E-PLP ArnB ([1]; measured at 340 nm): 0.065 ± 0.014 min⁻¹
observed rate constant of aminotransfer from L-methionine to E-PLP ArnB ([1]; measured at 430 nm): 0.051 ± 0.013 min⁻¹

NC(=O)CC[C@H](N)C(=O)O [L-glutamine]
use as amino donor substrate (ArnB from E. coli K12): less efficiently than with L-glutamate

N[C@H]1CONC1=O [L-cycloserine]
reaction with ArnB in the E-PMP form ([2]; E-PMP enzyme form): did not react
inactivation of E-PLP ArnB ([2]; excess L-cycloserine, loss of 430 nm internal aldimine peak, appearance of peak centered at 334 nm): rapidly inactivated
